Series [1] has as its system S. japonicum adult. In words: In vitro adult S. japonicum worm assay. The class given is cell-based. The note with it: for EC50: Schistosoma japonicum, S. japonicum, 120 h incubation, read-out: Sj adult EC50; for Potency ratio Sj/Sm: adult EC50 S. japonicum / S. mansoni. From the text: (§1) The Puerto Rican strain of S. mansoni was maintained in Biomphalaria glabrata and CD1 mice. Oncomelania hupensis (hupensis) infected with S. japonicum (Chinese strain) and Bulinus truncatus (truncatus) infected with Egyptian strain S. haematobium were obtained from BEI Resources, NIAID, NIH. Infection of mice for worm recovery was as previously described except that, whereas cercariae of S. mansoni and S. haematobium were obtained by shedding from infected snails under lights, cercariae of S. japonicum were obtained by gently crushing the snails. Furthermore, adult S. haematobium were recovered after 12 weeks following mouse infection.
(§2) In vitro efficacy was carried out as previously described. In brief, worms were recovered from infected mice by portal perfusion 3 weeks (for juveniles) or 6 weeks (for adults) post-infection using warm perfusion medium (Dulbecco’s Modified Eagle’s Medium [DMEM], 2mM L-glutamine, 100 Units/ml penicillin, 100μg/ml streptomycin, 20mM Hepes, 10 Units/ml heparin [Sigma, UK]). Worms were washed free of red blood cells using the perfusion medium, and finally suspended in complete medium (cDMEM: DMEM, 2mM L-glutamine, 100 Units/ml penicillin, 100μg/ml streptomycin, 10% FCS). The juvenile assays were carried out in 96-well plates, each well containing 6–8 worms in 200 μL cDMEM. The adult worm assay was in 24-well plates, each well containing 3 worm pairs in 1mL cDMEM. Both the juvenile and adult worm cultures were kept at 37° C, in an atmosphere of 5% CO2. Drug effects were determined on day 5 following drug treatment by assessing the viability of individual worms as described in [14].

Series [2] concerns S. haematobium adult. Nature of the series: In vitro adult S. haematobium worm assay. In kind it is cell-based. To be noted: for EC50: Schistosoma haematobium, S. haematobium, 120 h incubation, read-out: Sh adult EC50; for Potency ratio Sh/Sm: adult EC50 S. haematobium / S. mansoni.
Description: as §1, §2

Series [3] concerns Adult S. mansoni. Nature of the series: In vitro adult S. mansoni worm assay. In kind it is cell-based. The note with it: Schistosoma mansoni, 120 h incubation.
Description: as §1, §2

Series [4] deals with HepG2 cells. Nature of the series: Cytotoxicity, HepG2 cells with MTT. The class given is cell-based, human. To be noted: Table 2; hepG2 cell line, 72 h incubation. The method, then:
Activity against mammalian cells was determined using either of two standard assays. The first of these used MRC-5 cells with Alamar blue staining as previously described. The second used HepG2 cells monitored using 3-(4,5-dimethylthiazol-2-yl)-2,5-diphenyltetrazolium bromide (MTT) as previously described.

A short description of series [5]: In vivo efficacy, mouse model of juvenile (21-day old) S. mansoni infection. To be noted: female, CD1, plasma, mouse, Juvenile infection, read-out: Plasma conc @24 h (efficacy experiment). The method, then: (§3) Prior to in vivo efficacy experiments, a single animal was given a dose of drug (using the same formulation) that was twice as large as that planned for use in the efficacy experiments and was observed periodically for adverse clinical signs for 24h by trained veterinarians. Adverse clinical signs checked include postural defect, vocalization, oculo-nasal discharge, hypersalivation, change in activity, abnormal gait, respiration and pulse, piloerection, loss of pupillary reflex, eyelid reflex, chromodacryorrhea, reaction to handling, tremor, convulsions, prostration, diarrhoea, cachexia, emaciation. […] In vivo efficacy was assessed in female CD1 mice using methods based on those previously described. Mice were infected subcutaneously with 150 cercariae. Test compounds were suspended in 7% Tween-80 / 3% Ethanol / double distilled water and drug dispersal was facilitated by vortexing and using a sonicating water bath (Formulation “Aqueous”). Alternatively, drugs were first dissolved in DMSO, then diluted with corn oil to give a 1:19 DMSO:corn oil solution/suspension of test compound (Formulation “Corn oil”). Dosing was by oral gavage. Mice in the negative control groups were given the drug suspension vehicle only. Positive controls for treatment of adult, day 42 old, infections were treated with PZQ and those for juvenile, day 21 old, infections with artemether, which unlike PZQ is effective against the juvenile worm infections in mice. During and following treatment, mice were closely observed for any ill effects by staff experienced in animal handling. This involved individuals who were blinded to the treatment groups. Effects they were trained to look for included hunching, immobility, piloerection, subdued behaviour, diarrhoea and loss of body condition. None were seen. Worms were recovered by portal perfusion with citrate saline 8–14 days post treatment and counted. Differences between groups relative to the non-drug treated controls were assessed for statistical significance by Student’s unpaired t-test using GraphPad Prism Software. P values are presented as follows:- ns–P > 0.05 (not significant), * P ≤ 0.05, ** P ≤ 0.01, *** P ≤ 0.001, **** P ≤ 0.0001.
(§4) For pharmacokinetic analysis during the in vivo efficacy experiments individual animals were only sampled once. Samples were taken from one animal in each experimental group at each of 1, 4, 8 h and samples from two animals in each group were taken at 24 h.

Series [6] deals with S. mansoni juvenile worms. The series is described as above. The note with it: for efficacy in vivo against juvenile worm infection: 21-day old infections, single oral dose, Aqueous formulation (Fig 8); for Worms remaining: Juvenile infection; for in vivo EC50 against juvenile worms: mouse model, single oral dose (Fig 9C); for clearing juvenile worm infections in vivo: 12.5 mg/kg oral single dose (Fig 9D); for worm reduction: juvenile worms. The protocol:
as §3, §4

Series [7] has as its system panel of 50 human kinases. Nature of the series: Kinase panel activity. The class given is biochemical. To be noted: 1 μM. The method, then:
Kinase panel activity: Activity of compounds at 1 μM was assessed against a panel of 50 kinase enzymes (MKK1, JNK1, p38a MAPK, RSK1, PDK1, PKBa, SGK1, S6K1, PKA, ROCK 2, PRK2, PKCa, PKD1, MSK1, CAMKKb, CAMK1, SmMLCK, CHK2, GSK3b, PLK1, Aurora B, LKB1, AMPK (hum), MARK3, CK1δ, CK2, DYRK1A, NEK6, TBK1, PIM1, SRPK1, EF2K, HIPK2, PAK4, MST2, MLK3, TAK1, IRAK4, RIPK2, TTK, Src, Lck, BTK, JAK3, SYK, EPH-A2, HER4, IGF-1R, TrkA, VEG-FR) carried out by the MRC Protein Phosphorylation and Ubiquitinylation Unit at the University of Dundee, Dundee, DD1 5EH, UK.

Series [8] deals with Juvenile S. mansoni. In words: In vitro juvenile (3 week old) S. mansoni worm assay. The class given is cell-based. The note with it: Schistosoma mansoni; for EC50: Table 2, in vitro, 120 h incubation.
Description: as §1, §2

The nature of series [9]: In vivo efficacy, mouse model of adult (42-day old) S. mansoni infection. To be noted: female, CD1, mouse, plasma, po, mouse, Adult infection, read-out: Plasma conc @24 h (efficacy experiment). The method, then:
as §3, §4

For series [10], the system named is S. mansoni adult worms. The description is as above. The method, then: as §3, §4
[11] abbreviates: Table 2, in vitro, read-out: Adult S. mansoni EC50.
Where [12] appears, read: Table 3, S. mansoni, read-out: Sm adult EC50.
Setting [13] is: mouse, oral 50 mg/kg, formulation Aq.
Where [14] appears, read: oral 12.5 mg/kg, formulation corn oil.
Setting [15] is: mouse, oral 12.5 mg/kg, formulation corn oil.
The mark [16] stands for this setting: oral 6.25x2 mg/kg (12 h apart), formulation corn oil.

Results on five compounds are retold here after paper PMC8321398, “The discovery of a novel series of compounds with single-dose efficacy against juvenile and adult Schistosoma species” (PLoS Neglected Tropical Diseases, 2021).

Structures are written as SMILES. In brackets after ≈: the same amount, converted by molar mass. Like-named read-outs stand apart in the source and are kept apart here. Where only a bound is given, the exact number is not on record here.

As a reminder, the EC50 is the concentration giving half of the maximal effect. As for `CC(C)c1nc2cnc(-c3ccc(F)c(C(F)(F)F)c3)cn2c1-c1c(F)cc(O)cc1F` [LSHTM-3520], the EC50 in [1] amounted to 0.0735 µM; in [2], 0.0179 µM; in series [3] (setting [11]) it was 0.046 µM; in [3] (setting [12]), 0.0462 µM; in series [8], 0.027 µM. Also, in series [1], the “Potency ratio Sj/Sm” value is on record as 1.6. Further, the “Potency ratio Sh/Sm” value in series [2] was 0.4. The “Cytotox TC50” value in series [4] is reported as 7,130 nM. The concentration at 24 h turned out to be 0.208 µg/mL in [5] (oral 50 mg/kg, formulation Aq); 1.98 µg/mL in series [5] (oral 200 mg/kg, formulation Aq); 2 µg/mL in series [9] (200 mg/kg, oral 200 mg/kg, formulation Aq). The “efficacy in vivo against juvenile worm infection” value in series [6] (mouse) is on record as “effective”. The Worms remaining is 62% in series [6] (setting [13]); 16% in series [6] (mouse, oral 200 mg/kg, formulation Aq); 1% in series [10] (mouse, Adult infection, oral 200 mg/kg, formulation Aq). For the same compound, the “inhibition, panel of 50 human kinases” value in [7] is listed as ≤ 25%. Also, in series [10] (mice infected for 42 days (adult worms), 200 mg/kg single oral dose), the “reducing the S. mansoni worm count” value is listed as “highly effective”. In addition, in [10] (mouse, Adult infection, oral 200 mg/kg, formulation Aq, 200 mg/kg), the “Plasma conc @24 h (efficacy experiment)” value is 1,907 ng/mL.

The IC50 is the concentration at which inhibition is half-maximal. With `CC(C)c1nc2cnc(-c3ccc(F)c(C(F)(F)F)c3)cn2c1-c1ccc2[nH]ncc2c1F` [LSHTM-3604], the EC50 in [3] (setting [11]) was found to be 0.0315 µM; in [8], 0.0332 µM. Besides, the “Cytotox TC50” value in series [4] was 12,000 nM. The concentration at 24 h was found to be 0.223 µg/mL in series [5] (oral 25 mg/kg, formulation corn oil) and 0.505 µg/mL in [5] (oral 50 mg/kg, formulation Aq). Besides, the “efficacy in vivo against juvenile worm infection” value in series [6] (mouse) was “effective”. The Worms remaining in [6] (mouse, oral 25 mg/kg, formulation corn oil) stood at 13%; in [6] (setting [13]) it was 12%. Moreover, the “inhibition, panel of 50 human kinases” value in series [7] is ≤ 25%. Besides, the half-inhibitory concentration (IC50) in series [8] (10 fold the in vitro value (assay run at 10% of whole blood protein), read-out: calculated whole blood IC50) was 0.152 mg/L (≈ 0.332 µM).

Consider `Fc1c(-c2c(C(F)(F)F)nc3cnc(-c4cccc(C(F)(F)C(F)(F)F)c4)cn23)ccc2[nH]ncc12` [LSHTM-3608], for which the concentration for a half-maximal effect (EC50) in series [1] stood at 0.0952 µM; in [2] it was 0.0093 µM; in series [3] (setting [11]) it was 0.0153 µM; in [3] (setting [12]), 0.0153 µM; in series [8] it was 0.021 µM. Also, the “Potency ratio Sj/Sm” value in series [1] came to 6.2. Also, in series [2], the “Potency ratio Sh/Sm” value is 0.6. In series [4], the “Cytotox TC50” value was 10,900 nM. In addition, in series [5] (setting [14]), the concentration at 24 h was determined as 0.879 µg/mL. For the same compound, in series [6], the “in vivo EC50 against juvenile worms” value was “below 6.25 mg/kg”. Besides, in series [6] (mouse), the “clearing juvenile worm infections in vivo” value was “extremely effective”. The compound also came in with a Worms remaining in series [6] (setting [15]) of 0%. Moreover, in series [6] (mouse, single oral dose 12.5 mg/kg), the worm reduction is reported as 100%.

On to `Fc1ccc(-c2cn3c(-c4ccc5[nH]ncc5c4F)c(C(F)(F)F)nc3cn2)cc1C(F)(F)C(F)(F)F` [LSHTM-3645], for which the EC50 worked out at 0.129 µM in [1]; 0.0065 µM in [2]; 0.0097 µM in [3] (setting [11]); 0.0097 µM in series [3] (setting [12]); 0.0107 µM in [8]. The “Potency ratio Sj/Sm” value in [1] was 13.3. The “Potency ratio Sh/Sm” value in series [2] came to 0.7. In addition, the “Cytotox TC50” value in series [4] is recorded as 11,700 nM. Also, the concentration at 24 h in [5] (oral 6.25 mg/kg, formulation corn oil) turned out to be 0.708 µg/mL; in [5] (setting [14]), 0.984 µg/mL; in series [9] (6.25 mg/kg, oral 6.25 mg/kg, formulation corn oil) it was 1.01 µg/mL. For the same compound, the “in vivo EC50 against juvenile worms” value in series [6] is “below 6.25 mg/kg”. Further, the “clearing juvenile worm infections in vivo” value in series [6] (mouse) is on record as “extremely effective”. Besides, the Worms remaining stood at 1.8% in [6] (mouse, oral 6.25 mg/kg, formulation corn oil); 0% in series [6] (setting [15]); 1% in [10] (mouse, Adult infection, oral 6.25 mg/kg, formulation corn oil). In addition, in series [6] (mouse, single oral dose 6.25 mg/kg), the worm reduction is on record as 98%. Further, the “efficacy against adult worm infections” value in series [10] (mouse, single oral dose (Fig 9B)) is given as “highly effective”.

As for `CC(C)c1cc(-c2cn3c(-c4ccc5[nH]ncc5c4F)c(C4CC4)nc3cn2)ccc1F` [LSHTM-3686], the EC50 in series [1] is 0.0469 µM; in series [2], 0.0037 µM; in series [3] (setting [11]), 0.0054 µM; in [3] (setting [12]) it was 0.0054 µM; in series [8], 0.0041 µM. In [1], the “Potency ratio Sj/Sm” value was found to be 8.7. Also, the “Potency ratio Sh/Sm” value in [2] was 0.7. In addition, the “Cytotox TC50” value in series [4] was 15,800 nM. Moreover, the results for the concentration at 24 h in series [5] (setting [16]) and in [9] (setting [16]) were 0.0372 µg/mL and 0.241 µg/mL, respectively. For the same compound, the Worms remaining in series [6] (mouse, oral 6.25x2 mg/kg (12 h apart), formulation corn oil) turned out to be 25%; in series [10] (mouse, Adult infection, oral 6.25x2 mg/kg (12 h apart), formulation corn oil), 2.4%. The worm burden reduction in series [6] (mouse, juvenile infection, 6.25 mg/kg given twice 12 h apart) came out at 75%.
